Laboratory results from patent US20250268903A1, “RXFP1 AGONISTS” (BRISTOL-MYERS SQUIBB COMPANY, priority 2021, published 2025).

target: T1, human RXFP1 (Homo sapiens, UniProt Q9HBX9); experiment: hRXFP1 HEK293 cAMP assay (HTRF); format: cell-based; settings: HEK293 cells stably expressing human RXFP1, 30 min at room temperature
T1 construct: expressed in transfected cells
T1 sequence (Q9HBX9 1-757): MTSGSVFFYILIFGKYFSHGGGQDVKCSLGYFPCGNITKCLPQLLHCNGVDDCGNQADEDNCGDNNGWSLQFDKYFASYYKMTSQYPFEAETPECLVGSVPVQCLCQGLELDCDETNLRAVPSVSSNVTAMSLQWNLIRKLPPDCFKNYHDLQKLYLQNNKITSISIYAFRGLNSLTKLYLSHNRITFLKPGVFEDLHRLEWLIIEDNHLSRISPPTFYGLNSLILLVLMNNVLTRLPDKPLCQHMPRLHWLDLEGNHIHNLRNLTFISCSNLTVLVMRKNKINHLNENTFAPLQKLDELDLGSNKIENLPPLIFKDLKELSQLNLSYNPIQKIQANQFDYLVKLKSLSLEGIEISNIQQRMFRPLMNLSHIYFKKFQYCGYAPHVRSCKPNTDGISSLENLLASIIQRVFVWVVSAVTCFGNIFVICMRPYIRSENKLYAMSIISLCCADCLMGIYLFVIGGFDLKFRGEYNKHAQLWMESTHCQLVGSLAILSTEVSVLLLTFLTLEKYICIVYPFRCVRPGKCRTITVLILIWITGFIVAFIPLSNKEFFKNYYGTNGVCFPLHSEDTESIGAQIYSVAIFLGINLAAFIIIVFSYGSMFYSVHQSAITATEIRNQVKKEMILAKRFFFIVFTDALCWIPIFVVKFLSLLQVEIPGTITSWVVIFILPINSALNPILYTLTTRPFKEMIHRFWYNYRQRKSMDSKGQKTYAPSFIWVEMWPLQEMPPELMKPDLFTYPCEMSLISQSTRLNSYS
Outline: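 In a stable human RXFP1 HEK293 line, compounds acted for 30 min at RT in buffer with 0.5 mM IBMX. HTRF then quantified cellular cAMP.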

Row | Structure (SMILES) | EC50 [nM]
1 | COc1ccc(COCC2COC2)cc1C(=O)N[C@H]1[C@@H](C(=O)Nc2ccc(F)c(C(F)(F)F)c2)[C@H]2CC[C@@H]1/C2=C\C(F)(F)F [Example 284, (1R,2S,3R,4R,7Z)-N-[4-fluoro-3-(trifluoromethyl)phenyl]-3-(2-methoxy-5-{[(oxetan-3-yl)methoxy]methyl}benzamido)-7-(2,2,2-trifluoroethylidene) bicyclo[2.2.1] heptane-2-carboxamide] | 161
2 | COc1ccc(COC2CC=CC2)cc1C(=O)N[C@H]1[C@@H](C(=O)Nc2ccc(F)c(C(F)(F)F)c2)[C@H]2CC[C@@H]1/C2=C\C1CC1 [Example 285, (1R,2S,3R,4R,7Z)-3-{5-[(cyclopent-3-en-1-yloxy)methyl]-2-methoxybenzamido}-(cyclopropylmethyl-idene)-N-[4-fluoro-3-(trifluoromethyl)phenyl]bicyclo [2.2.1]heptane-2-carboxamide] | 226
3 | COc1ccc(COC[C@@H]2C[C@@H]2C(=O)OCc2ccccc2)cc1C(=O)N[C@H]1[C@@H](C(=O)Nc2ccc(F)c(C(F)(F)F)c2)[C@H]2CC[C@@H]1/C2=C\C1CC1 [Example 287, benzyl (1S, 2R)-2-{[(3-{[(1R,3S,4R,7Z)-7-(cyclopropylmethylidene)-3-{[4-fluoro-3-(trifluoromethyl)phenyl]carbamoyl}bicyclo[2.2.1]heptan-2-yl]carbamoyl}-4-methoxyphenyl)methoxy]methyl} cyclopropane-1-carboxylate] | 1290
4 | COc1ccc(COC2CCC(O)CC2)cc1C(=O)N[C@H]1[C@@H](C(=O)Nc2ccc(F)c(C(F)(F)F)c2)[C@H]2CC[C@@H]1/C2=C\C1CC1 (stereo partly drawn) [Example 289, (1R,2S,3R,4R,7Z)-7-(cyclopropyl-methylidene)-N-[4-fluoro-3-(trifluoromethyl)phenyl]-3-(5-{[(4-hydroxycyclohexyl)oxy]methyl}-2-methoxybenzamido) bicyclo[2.2.1]heptane-2-carboxamide] | 14.5
5 | COc1ccc(COCC2CC(O)C2)cc1C(=O)N[C@H]1[C@@H](C(=O)Nc2ccc(F)c(C(F)(F)F)c2)[C@H]2CC[C@@H]1/C2=C\C1CC1 (stereo partly drawn) [Example 291, (1R,2S,3R,4R,7Z)-7-(cyclopropyl-methylidene)-N-[4-fluoro-3-(trifluoromethyl)phenyl]-3-(5-{[(3-hydroxycyclobutyl)methoxy]methyl}-2-methoxybenzamido) bicyclo[2.2.1] heptane-2-carboxamide] | 2.22
6 | COc1ccc(COC2C[C@@H](O)[C@@H](O)C2)cc1C(=O)N[C@H]1[C@@H](C(=O)Nc2ccc(F)c(C(F)(F)F)c2)[C@H]2CC[C@@H]1/C2=C\C1CC1 (stereo partly drawn) [Example 297, (1R,2S,3R,4R,7Z)-7-(cyclopropylmethylidene)-3-[5-({[(3R,4S)-3,4-dihydroxycyclopentyl]oxy}methyl)-2-methoxybenzamido]-N-[4-fluoro-3-(trifluoromethyl)phenyl]bicyclo[2.2.1]heptane-2-carboxamide] | 8.3
7 | COc1ccc(CN2O[C@H]3COC[C@H]3C2=O)cc1C(=O)N[C@H]1[C@@H](C(=O)Nc2ccc(F)c(C(F)(F)F)c2)[C@H]2CC[C@@H]1/C2=C\C1CC1 [Example 299, (1R,2S,3R,4R,7Z)-3-(5-{[(3aR,6aR)-3-oxo-hexahydrofuro[3,4-d][1,2]oxazol-2-yl]methyl}-2-methoxybenzamido)-7-(cyclopropylmethylidene)-N-[4-fluoro-3-(trifluoromethyl)phenyl]bicyclo[2.2.1]heptane-2-carboxamide] | 116

Further molecules by falling EC50, results first:

Row | EC50 [nM] | Structure (SMILES)
8 | 121 | COc1ccc(COCC2CC3(C2)OCCO3)cc1C(=O)N[C@H]1[C@@H](C(=O)Nc2ccc(F)c(C(F)(F)F)c2)[C@H]2CC[C@@H]1/C2=C\C1CC1 [Example 286]
9 | 117 | COc1ccc(CN2C(=O)CN(CCO)C2=O)cc1C(=O)N[C@H]1[C@@H](C(=O)Nc2ccc(F)c(C(F)(F)F)c2)[C@H]2CC[C@@H]1/C2=C\C1CC1 [Example 294, (1R,2S,3R,4R,7Z)-7-(cyclopropyl-methylidene)-N-[4-fluoro-3-(trifluoromethyl)phenyl]-3-(5-{[3-(2-hydroxyethyl)-2,5-dioxoimidazolidin-1-yl]methyl}-2-methoxybenzamido) bicyclo[2.2.1]heptane-2-carboxamide]
10 | 107 | COCc1ncn(Cc2ccc(OC)c(C(=O)N[C@H]3[C@@H](C(=O)Nc4ccc(F)c(C(F)(F)F)c4)[C@H]4CC[C@@H]3/C4=C\C3CC3)c2)n1 [Example 296, (1R,2S,3R,4R,7Z)-7-(cyclopropyl-methylidene)-N-[4-fluoro-3-(trifluoromethyl)phenyl]-3-(2-methoxy-5-{[3-(methoxymethyl)-1H-1,2,4-triazol-1-yl]methyl}benzamido) bicyclo[2.2.1] heptane-2-carboxamide]
11 | 76.6 | COc1ccc(COC2CCC(O)CC2)cc1C(=O)N[C@H]1[C@@H](C(=O)Nc2ccc(F)c(C(F)(F)F)c2)[C@H]2CC[C@@H]1/C2=C\C1CC1 (stereo partly drawn) [Example 290, (1R,2S,3R,4R,7Z)-7-(cyclopropyl-methylidene)-N-[4-fluoro-3-(trifluoromethyl)phenyl]-3-(5-{[(4-hydroxycyclohexyl)oxy]methyl}-2-methoxybenzamido) bicyclo[2.2.1]heptane-2-carboxamide]
12 | 70.4 | COc1ccc(CN2C(=O)NC3(CCOC3)C2=O)cc1C(=O)N[C@H]1[C@@H](C(=O)Nc2ccc(F)c(C(F)(F)F)c2)[C@H]2CC[C@@H]1/C2=C\C1CC1 (stereo partly drawn) [Example 295, (1R,2S,3R,4R,7Z)-7-(cyclopropyl-methylidene)-3-[5-({2,4-dioxo-7-oxa-1,3-diazaspiro[4.4]nonan-3-yl}methyl)-2-methoxybenzamido]-N-[4-fluoro-3-(trifluoromethyl)phenyl]bicyclo [2.2.1]heptane-2-carboxamide]
13 | 67.1 | COc1ccc(COC[C@@H]2C[C@@H]2CO)cc1C(=O)N[C@H]1[C@@H](C(=O)Nc2ccc(F)c(C(F)(F)F)c2)[C@H]2CC[C@@H]1/C2=C\C1CC1 [Example 293, (1R,2S,3R,4R,7Z)-7-(cyclopropyl-methylidene)-N-[4-fluoro-3-(trifluoromethyl)phonyl]-3-[5-({[(1R,2S)-2-(hydroxymethyl)cyclopropyl]methoxy}methyl)-2-methoxybenzamido] bicyclo[2.2.1]heptane-2-carboxamide]
14 | 58.7 | COc1ccc(COC2CCOCC2)cc1C(=O)N[C@H]1[C@@H](C(=O)Nc2ccc(F)c(C(F)(F)F)c2)[C@H]2CC[C@@H]1/C2=C\C1CC1 [Example 288, (1R,2S,3R,4R,7Z)-7-(cyclopropyl-methylidene)-N-[4-fluoro-3-(trifluoromethyl)phenyl]-3-{2-methoxy-5-[(oxan-4-yloxy)methyl]benzamido} bicyclo[2.2.1] heptane-2-carboxamide]
15 | 28.4 | COc1ccc(COC[C@@H]2C[C@@H]2C(=O)O)cc1C(=O)N[C@H]1[C@@H](C(=O)Nc2ccc(F)c(C(F)(F)F)c2)[C@H]2CC[C@@H]1/C2=C\C1CC1 [Example 292, (1S,2R)-2-{[(3-{[(1R.2R,3S,4R,7Z)-7-(cyclopropyl-methylidene)-3-{[4-fluoro-3-(trifluoromethyl)phenyl]carbamoyl}bicyclo[2.2.1]heptan-2-yl]carbamoyl}-4-methoxyphenyl)methoxy]methyl} cyclopropane-1-carboxylic acid]
